Assay results reported in US20190183138A1, “MILK COAGULANT AND METHOD FOR PRODUCING CHEESE” (CHINA AGRICULTURAL UNIVERSITY, priority 2017, published 2019).
Square brackets hold non-standard residues; d marks the D form. Peptide text beside a SMILES is read from it. * marks the point of attachment. Sta = CC(C)C[C@H](N)[C@@H](O)CC(=O)O; Isovaleryl = CC(C)CC(=O)*

Experiments:
[1] = system: C. otophyllum protease QA; format: biochemical, Cynanchum otophyllum Schneid.; settings: inhibitor 8 mmol/L, 37° C., 30 min
Experimental: (§1) The caseinolytic activities of the C. otophyllum proteases were determined using a method modified from Mohanty et al. (2003). The substrate was prepared by dissolving 1% (wt/vol) of whole casein in 10 mmol/L of citric acidphosphate buffer (pH 6.5). The assay was performed by incubating 1.1 mL of substrate with 0.1 mL of partially purified protease extracted solution under 37° C. for 30 min and terminated using 1.8 mL of 5% (wt/vol) trichloroacetic acid (TCA). The blank control was prepared by adding the same amount of TCA to the protease extracted solution, then adding the substrate. After 30 min standing at room temperature, the completely precipitated proteins were removed by centrifuging at 5,000 × g for 20 min at room temperature. The protein content in the supernatant was then measured at 280 nm (UV-2102 PC, Unico Instrument Co. Ltd.). One unit of PA was defined as the amount of the protease extracted solution required for an increase of 0.01 in optical density in 1 min at 280 nm.
(§2) The type of protease was determined as described by Mazorra-Manzano et al. (2013) with modification.Different protease inhibitors (8 mmol/L, 0.1 mL), a serine protease (phenylmethylsulfonyl fluoride, PMSF), a cysteine protease [transepoxy-succinylleucyl-amido-(4-guanidino)-butane, E-64], a metallo protease (EDTA), and an aspartic protease (pepstatin A), were added to 1 mL of the proteases. The mixtures were incubated at 37° C. for 30 min, then PA was evaluated. The percentage inhibition was calculated as follows:
(§3) percentage inhibition=100−[100−(residual activity/activity without inhibitor)].

[2] = system: C. otophyllum protease QC; format: biochemical, Cynanchum otophyllum Schneid.; settings: inhibitor 8 mmol/L, 37° C., 30 min
Experimental: as §1, §2, §3

[3] = system: C. otophyllum protease QA; experiment: Effect of metal ions on milk-clotting activity; format: biochemical, Cynanchum otophyllum Schneid.; settings: metal ion 10 mmol/L added to 12% (w/v) skim milk containing 10 mmol/L CaCl2, pH 6.5
From the text: (§4) Some metal ions as a cofactor can participate in the milk-clotting reaction, thus affecting activity of enzyme. Further, the skim milk is of increased iron strength after addition of salts, thus interfering the stability of casein micelle and the formation of the milk clot. […] The reason of the promotion on milk coagulant activity and the decrease in milk-clotting time by the calcium ions is that they combines with exposed α-casein and β-casein during aggregation of the casein (i.e. the second step of the milk-clotting reaction), so as to promote formation of the milk clot. Further, it has been investigated that the calcium ions protect enzyme, especially those being poor resistant to temperature, and stabilizes the structure of enzyme, thus an amount of CaCl2 is often added to protect the structure of enzyme during cheese production, for increasing activity and speeding milk-clotting.

[4] = system: C. otophyllum protease QC; experiment: Effect of metal ions on milk-clotting activity; format: biochemical, Cynanchum otophyllum Schneid.; settings: metal ion 10 mmol/L added to 12% (w/v) skim milk containing 10 mmol/L CaCl2, pH 6.5
From the text: as §4

12% skim milk = experiment: Milk clotting activity (MCA) assay, curd formation time; format: biochemical; settings: 12% skim milk in 10 mM CaCl2, pH 6.5, 37° C.; FIG. 5
Experimental: The MCA of the C. otophyllum proteases was determined using a modified method of He et al. (2011). One milliliter of substrate (12% skim milk in 10 mM CaCl2, pH 6.5) was incubated under 37° C. for 5 min, then 0.1 mL of the protease extracted solution was added. The time needed for curd formation was recorded and the MCA was expressed in Soxhlet units (SU). One SU of MCA was defined as the amount of the protease extracted solution required to clot 1 mL of substrate within 40 min at 37° C.
where V stands for the volume of the substrate (mL); v stands for the volume of the protease extract; and t stands for the milk-clotting time (s).
The C. otophyllum proteases were extracted as described by Huang et al. (2011) with some modifications. The C. otophyllum leaves were cut into pieces, mixed with a buffer at different solid-liquid ratios (i.e. ratio of mass to volume) for extraction, and then left for 2 h under 4° C., thus obtaining an extracted solution. After successive filtration through 4 layers of cheesecloth and a 0.22-μm membrane, the filtrate was concentrated by ultrafiltration with a 10-kDa molecular weight cut-off membrane at 8000 × g for 40 minutes at 4° C., with the retentate obtained as the concentrated solution of C. otophyllum proteases, which was assayed for protein concentration following the method of Bradford (1976) and curd formation time for 12% (w/v) skim milk.

Row | Compound | effect on milk-clotting activity of QA [3] | effect on milk-clotting activity of QC [4] | also measured
1 | CC(C)C[C@H](NC(=O)[C@H]1O[C@@H]1C(=O)O)C(=O)NCCCCN=C(N)N [E-64, transepoxy-succinylleucyl-amido-(4-guanidino)-butane] |  |  | PA of QA in presence of inhibitor ([1]; 0.1 mL to 1 mL protease): 20 % of the control; PA of QC in presence of inhibitor ([2]; 0.1 mL to 1 mL protease): 20 % of the control
2 | O=C(O)CN(CCN(CC(=O)O)CC(=O)O)CC(=O)O [EDTA] |  |  | effect on the PA of QA [1]: does not affect; effect on the PA of QC [2]: does not affect
3 | O=S(=O)(F)Cc1ccccc1 [PMSF, phenylmethylsulfonyl fluoride] |  |  | reduction in the activity of QA ([1]; compared to the control): about 15%; reduction in the activity of QC ([2]; compared to the control): about 15%
4 | CC(C)CC(=O)N[C@H](C(=O)N[C@H](C(=O)N[C@@H](CC(C)C)[C@@H](O)CC(=O)N[C@@H](C)C(=O)N[C@@H](CC(C)C)[C@@H](O)CC(=O)O)C(C)C)C(C)C [pepstatin A] (Isovaleryl-VV[Sta]A[Sta]-OH) |  |  | effect on the PA of QA [1]: does not affect; effect on the PA of QC [2]: does not affect
5 | aluminium | significant increased effect | significant increased effect | 
6 | barium | no significant effect | no significant effect | 
7 | bromelain [reference compound] |  |  | MCA (milk-clotting activity) (12% skim milk): 222.2 SU/mg
8 | calcium | significant increased effect | significant increased effect | 
9 | copper | significant inhibition | significant inhibition | 
10 | lithium | no significant effect | no significant effect | 
11 | magnesium | no significant effect | no significant effect | 
12 | potassium | no significant effect | no significant effect | 
13 | sodium | no significant effect | no significant effect | 
14 | zinc | significant inhibition | significant inhibition | 
